For four molecules, IC50 results are on record in ChEMBL document CHEMBL3286308, “Potent and orally efficacious bisthiazole-based histone deacetylase inhibitors” (ACS Med Chem Lett, 2014).

As usually defined, the IC50 is the concentration needed to halve the response being measured.

Each structure is given as a SMILES string.

Histone deacetylase 1, sequence (Q13547 whole entry): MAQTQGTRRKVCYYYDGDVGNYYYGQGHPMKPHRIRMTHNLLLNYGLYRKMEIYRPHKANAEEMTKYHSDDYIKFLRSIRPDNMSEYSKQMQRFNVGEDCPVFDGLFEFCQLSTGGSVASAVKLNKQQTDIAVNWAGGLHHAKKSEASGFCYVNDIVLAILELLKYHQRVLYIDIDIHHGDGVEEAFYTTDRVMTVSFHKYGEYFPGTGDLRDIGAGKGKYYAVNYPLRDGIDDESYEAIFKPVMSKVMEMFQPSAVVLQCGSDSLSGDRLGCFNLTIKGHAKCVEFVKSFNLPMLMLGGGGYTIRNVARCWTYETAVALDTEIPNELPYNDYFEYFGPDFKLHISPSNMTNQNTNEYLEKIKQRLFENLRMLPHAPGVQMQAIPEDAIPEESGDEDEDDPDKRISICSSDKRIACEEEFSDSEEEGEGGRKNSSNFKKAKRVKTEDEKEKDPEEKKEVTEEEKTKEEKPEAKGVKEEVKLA

This assay addresses Histone deacetylase 1 (Homo sapiens, UniProt Q13547).
`CCCCCCCC(=O)SCC/C=C/[C@@H]1CC(=O)NCc2nc(cs2)C2=N[C@@](C)(CS2)C(=O)N[C@@H](C(C)C)C(=O)O1` [LARGAZOLE] gave an IC50 of 0.0137 µM.

The molecule `Cc1nc(C2=N[C@](C)(C(=O)N[C@H](C(=O)OC/C=C/CCS)C(C)C)CS2)cs1` registered an IC50 of 13.9 µM. Regarding `CC(C)[C@H](NC(=O)[C@]1(C)CSC(c2cscn2)=N1)C(=O)OC/C=C/CCS`, the IC50 came out at 16.8 µM. Under `CCCCCCCC(=O)SCC/C=C/[C@@H]1CC(=O)NCc2nc(cs2)-c2nc(cs2)C(=O)N[C@@H](C(C)C)C(=O)O1` stands 2 µM.
